In PubChem BioAssay (NCI):
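Briefly, cells in 96-well plates were exposed to five compound concentrations for 48 h, and endpoints were estimated by linear interpolation. GI50 is the concentration that inhibits growth by half. TGI denotes the concentration required for complete inhibition of growth.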

Key:
Test in all cases: NCI tumour cell line growth inhibition, 48 h
IGROV1 ovarian = tested on: IGROV1 ovarian
786-0 renal = tested on: 786-0 renal
LOX IMVI melanoma = tested on: LOX IMVI melanoma
RXF 393 renal = tested on: RXF 393 renal
MALME-3M melanoma = tested on: MALME-3M melanoma
OVCAR-4 ovarian = tested on: OVCAR-4 ovarian
DU-145 prostate = tested on: DU-145 prostate
OVCAR-8 ovarian = tested on: OVCAR-8 ovarian
HCT-15 colon = tested on: HCT-15 colon
M14 melanoma = tested on: M14 melanoma

| SMILES | GI50 (IGROV1 ovarian) [µM] | TGI (IGROV1 ovarian) [µM] | GI50 (786-0 renal) [µM] | TGI (786-0 renal) [µM] | GI50 (LOX IMVI melanoma) [µM] | TGI (LOX IMVI melanoma) [µM] | GI50 (RXF 393 renal) [µM] | TGI (RXF 393 renal) [µM] | GI50 (MALME-3M melanoma) [µM] | TGI (MALME-3M melanoma) [µM] | GI50 (OVCAR-4 ovarian) [µM] | TGI (OVCAR-4 ovarian) [µM] | GI50 (DU-145 prostate) [µM] | TGI (DU-145 prostate) [µM] | GI50 (OVCAR-8 ovarian) [µM] | TGI (OVCAR-8 ovarian) [µM] | GI50 (HCT-15 colon) [µM] | TGI (HCT-15 colon) [µM] | GI50 (M14 melanoma) [µM] | TGI (M14 melanoma) [µM] |
| --- | --- | --- | --- | --- | --- | --- | --- | --- | --- | --- | --- | --- | --- | --- | --- | --- | --- | --- | --- | --- |
| FC(F)(F)c1cccc(Oc2ccc(Nc3ncnc4ccc(OCCCN5CCOCC5)cc34)cc2Cl)c1 | 1.01 | 3.16 | 1.51 | 3.11 | 1.71 | 3.45 | 1.76 | 4.03 | 1.6 | 3.07 | 2.52 | 12.7 | 2.42 | 10.3 | 3.22 | 21.2 | 1.48 | 3.16 | 1.75 | 3.51 |
| O=C(Nc1ccc(Cl)cc1)c1cc(NCc2cc(O)ccc2O)ccc1O | 11.2 | 38.8 | 6.17 | 19.6 | 4.1 | 23.1 | 2.24 | 5.31 | 4.34 | 16.8 | 2.9 | > 100 | 13.2 | 26.9 | 4.35 | 20.1 | 1.81 | 6.01 | 10.5 | 27.1 |
| COc1ccc2c(c1)c1ccc3c(c1n2C)C(=O)C=CC3=O |  | 28.3 |  | 14.7 |  | 14.9 |  | 10.4 |  | 18.8 |  | 15.6 |  | 15 |  | 26.6 |  | 10.9 |  | 24.3 |
| O=c1cccccc1O |  | > 100 |  | > 100 |  | > 100 |  | > 100 |  | > 100 |  | > 100 |  | > 100 |  | > 100 |  | > 100 |  | > 100 |
| COc1cccc(C2SC(C)C(=O)N2NC(=O)C(O)c2ccccc2)c1 (centres undefined) | > 100 | > 100 | > 100 | > 100 | > 100 | > 100 | > 100 | > 100 | > 100 | > 100 | 41.7 | > 100 | > 100 | > 100 | > 100 | > 100 | > 100 | > 100 | > 100 | > 100 |
| NC(=O)c1ccc(I)c([N+](=O)[O-])c1 | > 100 | > 100 | > 100 | > 100 | 44.5 | > 100 | > 84.8 | > 100 | 41 | > 72.9 | 17.2 | 32.1 | > 95.3 | > 100 | > 100 | > 100 | > 77.3 | > 100 | > 86 | > 100 |
| O=c1oc2ccc(F)cc2c(=O)n1-c1ccc(I)cc1F | 0.397 | 15.6 | 1.67 | 8.1 | 0.374 | 2.29 | 0.543 | 3.3 | 0.305 | 1.17 | 0.298 |  | 0.497 | 26.4 | 0.872 | > 41.9 | 0.471 | 10.9 | 0.49 | 4.27 |
